# Source: patent publication US8952024B2, “Herbicidal pyrimidone derivatives” (E I du Pont de Nemours and Company, priority 2009, dated 2015)
# Columns and labels:
# Experiment in all cases: Test B pre-/postemergence plant response
# Type in all cases: in vivo
# [1] = system: Surinam grass (Brachiaria decumbens)
# Procedure, shortened: (§1)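 Greenhouse herbicide screen. Pre- and postemergence (1- to 4-leaf) spray of compound in solvent/surfactant mixture; loam–sand soil for pre, peat/vermiculite medium for post. Visual control rating 0–100 at 13 to 15 days after treatment.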
# [2] = system: blackgrass (Alopecurus myosuroides)
# Procedure, shortened: as §1
# corn (Zea mays) = system: corn (Zea mays)
# Procedure, shortened: as §1
# [3] = system: downy bromegrass (Bromus tectorum)
# Procedure, shortened: as §1
# [4] = system: goosegrass (Eleusine indica)
# Procedure, shortened: as §1
# [5] = system: green foxtail (Setaria viridis)
# Procedure, shortened: as §1
# [6] = system: johnsongrass (Sorghum halepense)
# Procedure, shortened: as §1
# kochia (Kochia scoparia) = system: kochia (Kochia scoparia)
# Procedure, shortened: as §1
# [7] = system: lambsquarters (Chenopodium album)
# Procedure, shortened: as §1
# [8] = system: large crabgrass (Digitaria sanguinalis)
# Procedure, shortened: as §1
# [9] = system: morningglory (Ipomoea coccinea)
# Procedure, shortened: as §1
# [10] = system: pigweed (Amaranthus retroflexus)
# Procedure, shortened: as §1
# soybean (Glycine max) = system: soybean (Glycine max)
# Procedure, shortened: as §1
# [11] = system: velvetleaf (Abutilon theophrasti)
# Procedure, shortened: as §1
# wild oat (Avena fatua) = system: wild oat (Avena fatua)
# Procedure, shortened: as §1
# [12] = system: woolly cupgrass (Eriochloa villosa)
# Procedure, shortened: as §1
# [13] = system: yellow nutsedge (Cyperus esculentus)
# Procedure, shortened: as §1
# [14] = 31 g ai/ha, postemergence, scale 0 to 100, 0 is no effect, 100 is complete control
# [15] = 62 g ai/ha, postemergence, 0 is no effect, 100 is complete control, 13 to 15 days
# [16] = Postemergence, 125 g ai/ha, visual rating after 13 to 15 days, scale 0 (no effect) to 100 (complete control)
# [17] = Postemergence, 250 g ai/ha, scale 0 to 100 (0 no effect, 100 complete control)
# [18] = Preemergence, 31 g ai/ha, scale 0 to 100 (0 no effect, 100 complete control)
# [19] = Preemergence, 62 g ai/ha, scale 0 to 100, 0 no effect, 100 complete control
# [20] = Preemergence, 125 g ai/ha, scale 0 to 100, 0 no effect, 100 complete control
# [21] = 250 g ai/ha, Preemergence, 0 to 100 scale
compound,measurement,setting,value
CC(C)Cc1ncc(C(=O)C2=C(O)CCCC2=O)c(=O)n1-c1ccccc1 [Compound 68],"Plant response rating, Surinam Grass",[1]; [14],25
same,Surinam Grass plant response rating (0 to 100 scale),[1]; [15],55
same,"Plant response rating, Surinam Grass",[1]; [16],70
same,"Plant response rating, Surinam Grass",[1]; [17],90
same,"Plant response rating, Surinam Grass",[1]; [18],45
same,"Plant response rating, Surinam Grass",[1]; [19],50
same,"Plant response rating, Surinam Grass",[1]; [20],55
same,"Plant response rating, Blackgrass",[2]; [14],0
same,Blackgrass plant response rating (0 to 100 scale),[2]; [15],0
same,"Plant response rating, Blackgrass",[2]; [21],5
same,"Plant response rating, Blackgrass",[2]; [16],0
same,"Plant response rating, Blackgrass",[2]; [17],20
same,"Plant response rating, Blackgrass",[2]; [18],0
same,"Plant response rating, Blackgrass",[2]; [19],0
same,"Plant response rating, Blackgrass",[2]; [20],0
same,"Plant response rating, Corn",corn (Zea mays); [14],0
same,Corn plant response rating (0 to 100 scale),corn (Zea mays); [15],15
same,"Plant response rating, Corn",corn (Zea mays); [21],0
same,"Plant response rating, Corn",corn (Zea mays); [16],80
same,"Plant response rating, Corn",corn (Zea mays); [17],80
same,"Plant response rating, Corn",corn (Zea mays); [18],0
same,"Plant response rating, Corn",corn (Zea mays); [19],0
same,"Plant response rating, Corn",corn (Zea mays); [20],0
same,"Plant response rating, Bromegrass, Downy",[3]; [14],5
same,"Bromegrass, Downy plant response rating (0 to 100 scale)",[3]; [15],5
same,"Plant response rating, Bromegrass, Downy",[3]; [21],5
same,"Plant response rating, Bromegrass, Downy",[3]; [16],25
same,"Plant response rating, Bromegrass, Downy",[3]; [17],40
same,"Plant response rating, Bromegrass, Downy",[3]; [18],0
same,"Plant response rating, Bromegrass, Downy",[3]; [19],0
same,"Plant response rating, Bromegrass, Downy",[3]; [20],0
same,"Plant response rating, Goosegrass",[4]; [14],65
same,Goosegrass plant response rating (0 to 100 scale),[4]; [15],70
same,"Plant response rating, Goosegrass",[4]; [21],98
same,"Plant response rating, Goosegrass",[4]; [16],85
same,"Plant response rating, Goosegrass",[4]; [17],95
same,"Plant response rating, Goosegrass",[4]; [18],80
same,"Plant response rating, Goosegrass",[4]; [19],95
same,"Plant response rating, Goosegrass",[4]; [20],98
same,"Plant response rating, Foxtail, Green",[5]; [14],40
same,"Foxtail, Green plant response rating (0 to 100 scale)",[5]; [15],85
same,"Plant response rating, Foxtail, Green",[5]; [21],85
same,"Plant response rating, Foxtail, Green",[5]; [16],85
same,"Plant response rating, Foxtail, Green",[5]; [17],95
same,"Plant response rating, Foxtail, Green",[5]; [18],0
same,"Plant response rating, Foxtail, Green",[5]; [19],5
same,"Plant response rating, Foxtail, Green",[5]; [20],25
same,"Plant response rating, Johnsongrass",[6]; [14],10
same,Johnsongrass plant response rating (0 to 100 scale),[6]; [15],10
same,"Plant response rating, Johnsongrass",[6]; [21],95
same,"Plant response rating, Johnsongrass",[6]; [16],75
same,"Plant response rating, Johnsongrass",[6]; [17],100
same,"Plant response rating, Johnsongrass",[6]; [18],0
same,"Plant response rating, Johnsongrass",[6]; [19],5
same,"Plant response rating, Johnsongrass",[6]; [20],75
same,"Plant response rating, Kochia",kochia (Kochia scoparia); [14],70
same,Kochia plant response rating (0 to 100 scale),kochia (Kochia scoparia); [15],90
same,"Plant response rating, Kochia",kochia (Kochia scoparia); [21],95
same,"Plant response rating, Kochia",kochia (Kochia scoparia); [16],95
same,"Plant response rating, Kochia",kochia (Kochia scoparia); [17],98
same,"Plant response rating, Kochia",kochia (Kochia scoparia); [18],80
same,"Plant response rating, Kochia",kochia (Kochia scoparia); [19],80
same,"Plant response rating, Kochia",kochia (Kochia scoparia); [20],95
same,"Plant response rating, Lambsquarters",[7]; [14],95
same,Lambsquarters plant response rating (0 to 100 scale),[7]; [15],98
same,"Plant response rating, Lambsquarters",[7]; [21],100
same,"Plant response rating, Lambsquarters",[7]; [16],100
same,"Plant response rating, Lambsquarters",[7]; [17],100
same,"Plant response rating, Lambsquarters",[7]; [18],98
same,"Plant response rating, Lambsquarters",[7]; [19],98
same,"Plant response rating, Lambsquarters",[7]; [20],98
same,"Plant response rating, Crabgrass, Large",[8]; [14],75
same,"Crabgrass, Large plant response rating (0 to 100 scale)",[8]; [15],90
same,"Plant response rating, Crabgrass, Large",[8]; [21],100
same,"Plant response rating, Crabgrass, Large",[8]; [16],90
same,"Plant response rating, Crabgrass, Large",[8]; [17],98
same,"Plant response rating, Crabgrass, Large",[8]; [18],65
same,"Plant response rating, Crabgrass, Large",[8]; [19],95
same,"Plant response rating, Crabgrass, Large",[8]; [20],98
same,"Plant response rating, Morningglory",[9]; [14],80
same,Morningglory plant response rating (0 to 100 scale),[9]; [15],85
same,"Plant response rating, Morningglory",[9]; [16],98
same,"Plant response rating, Morningglory",[9]; [17],100
same,"Plant response rating, Morningglory",[9]; [18],0
same,"Plant response rating, Morningglory",[9]; [19],55
same,"Plant response rating, Morningglory",[9]; [20],65
same,"Plant response rating, Pigweed",[10]; [14],85
same,Pigweed plant response rating (0 to 100 scale),[10]; [15],95
same,"Plant response rating, Pigweed",[10]; [16],100
same,"Plant response rating, Pigweed",[10]; [17],100
same,"Plant response rating, Pigweed",[10]; [18],95
same,"Plant response rating, Pigweed",[10]; [19],98
same,"Plant response rating, Pigweed",[10]; [20],100
same,"Plant response rating, Soybean",soybean (Glycine max); [14],80
same,Soybean plant response rating (0 to 100 scale),soybean (Glycine max); [15],95
same,"Plant response rating, Soybean",soybean (Glycine max); [16],98
same,"Plant response rating, Soybean",soybean (Glycine max); [17],98
same,"Plant response rating, Velvetleaf",[11]; [14],95
same,Velvetleaf plant response rating (0 to 100 scale),[11]; [15],100
same,"Plant response rating, Velvetleaf",[11]; [16],100
same,"Plant response rating, Velvetleaf",[11]; [17],100
same,"Plant response rating, Velvetleaf",[11]; [18],95
same,"Plant response rating, Velvetleaf",[11]; [19],100
same,"Plant response rating, Velvetleaf",[11]; [20],100
same,"Plant response rating, Oat, Wild",wild oat (Avena fatua); [14],5
same,"Oat, Wild plant response rating (0 to 100 scale)",wild oat (Avena fatua); [15],20
same,"Plant response rating, Oat, Wild",wild oat (Avena fatua); [16],50
same,"Plant response rating, Oat, Wild",wild oat (Avena fatua); [17],70
same,"Plant response rating, Oat, Wild",wild oat (Avena fatua); [18],0
same,"Plant response rating, Oat, Wild",wild oat (Avena fatua); [19],0
same,"Plant response rating, Oat, Wild",wild oat (Avena fatua); [20],0
same,"Plant response rating, Cupgrass, Woolly",[12]; [14],10
same,"Cupgrass, Woolly plant response rating (0 to 100 scale)",[12]; [15],10
same,"Plant response rating, Cupgrass, Woolly",[12]; [21],85
same,"Plant response rating, Cupgrass, Woolly",[12]; [16],55
same,"Plant response rating, Cupgrass, Woolly",[12]; [17],75
same,"Plant response rating, Cupgrass, Woolly",[12]; [18],5
same,"Plant response rating, Cupgrass, Woolly",[12]; [19],20
same,"Plant response rating, Cupgrass, Woolly",[12]; [20],55
same,"Plant response rating, Nutsedge, Yellow",[13]; [14],0
same,"Nutsedge, Yellow plant response rating (0 to 100 scale)",[13]; [15],10
same,"Plant response rating, Nutsedge, Yellow",[13]; [16],70
same,"Plant response rating, Nutsedge, Yellow",[13]; [17],80
same,"Plant response rating, Nutsedge, Yellow",[13]; [18],0
same,"Plant response rating, Nutsedge, Yellow",[13]; [19],70
same,"Plant response rating, Nutsedge, Yellow",[13]; [20],85
